The results in this text go back to paper PMC4193892, “3-O-Galloylated Procyanidins from Rumex acetosa L. Inhibit the Attachment of Influenza A Virus” (PLoS ONE, 2014).

One series can be described thus: in vitro. The conditions noted are these: dog.
A further series relates to chicken erythrocytes. In words: Direct agglutination of erythrocytes in the absence of IAV. The series is classed as cell-based. Conditions: minimal concentration. On the procedure: Twofold serial dilutions (25 µL) of test compounds in PBS and 4 hemagglutinating units (HU) of IAV (25 µl) were mixed carefully in 96-well plates with U-shaped bottom (Thermo Fisher Scientific Nunc, Schwerte, Germany). Plates were shaken for 5 min. and incubated for 25 min. at room temperature (RT). 50 µL of a 1.5% suspension of newborn chicken erythrocytes (RBC) in PBS (Labor Dr. Merk & Kollegen, Ochsenhausen, Germany) were added, and plates shaken again. Assays were read following a 2 h incubation period at RT, and the minimum inhibitory concentration (MIC), defined as the highest test compound dilution showing complete inhibition of the agglutination of erythrocytes, was determined. In every assay, a test compound control (compound plus RBC without addition of IAV), and erythrocyte controls (A: IAV plus RBC, without addition of test compound; B: RBC, without addition of test compound or IAV) were included.

The test system of a further series is MDCK II cells. In words: cells. Conditions: Canis lupus familiaris, 48 h, read-out: cell vitality.
Another series deals with IAV(H1N1)pdm09 I1. Format: cell-based, influenza A virus.
Series [1] has as its system IAV(H1N1)pdm09 isolate I1. In words: microbe, parasite or virus in culture. The conditions noted are these: Influenza A virus. The series is classed as cell-based, influenza A virus.

One may read the IC50 as the concentration at which inhibition is half-maximal. Turning to `O=C(O[C@@H]1Cc2c(O)cc(O)cc2O[C@@H]1c1cc(O)c(O)c(O)c1)c1cc(O)c(O)c(O)c1` [compound 6, reference compound], the CC50 at 48 h in the series “in vitro” is more than 200 µM. Also, in the series on chicken erythrocytes, the direct agglutination turned out to be 156 µM. In the series with MDCK II cells, the viability at 2 µM was determined as 103 ± 4%, the viability at 20 µM is 92 ± 7% and the viability at 200 µM was 62 ± 9%. In addition, in the series on IAV(H1N1)pdm09 I1, the MIC entry is on record as “no inhibitory effect”. Besides, in series [1] (H1N1), the concentration for half-maximal inhibition (IC50) is not above 12 µM. Besides, in series [1] (H1N1, 48 h, 2 µM, read-out: anti-IAV activity), the inhibition at 2 µM turned out to be 1 ± 1%. The inhibition at 20 µM in series [1] (H1N1, 48 h, 20 µM, read-out: anti-IAV activity) came out at 87 ± 25%. For the same compound, the inhibition at 200 µM in series [1] (H1N1, 48 h, 200 µM, read-out: anti-IAV activity) was 60 ± 7%.
